Laboratory results: PMC9942120 (iScience, 2023)

Key:
ANXA2 = ANXA2 (Homo sapiens, UniProt P07355); test: direct LC-MS/MS profiling of modified tryptic peptides; format: cell-based; conditions: covalent at Cys9; H358 cells, […] AMG510, […] h (methods print […] h)
HSPD1 = HSPD1 (Homo sapiens, UniProt P10809); test: as above; format: cell-based; conditions: covalent at Cys237; H358 cells, […] AMG510, […] h (methods print […] h)
HMOX2 = target: T1, HMOX2 (Homo sapiens, UniProt P30519); test: as above; format: cell-based; conditions: covalent at Cys282; H358 cells, […] AMG510, […] h (methods print […] h)
T1 sequence (P30519 2-316): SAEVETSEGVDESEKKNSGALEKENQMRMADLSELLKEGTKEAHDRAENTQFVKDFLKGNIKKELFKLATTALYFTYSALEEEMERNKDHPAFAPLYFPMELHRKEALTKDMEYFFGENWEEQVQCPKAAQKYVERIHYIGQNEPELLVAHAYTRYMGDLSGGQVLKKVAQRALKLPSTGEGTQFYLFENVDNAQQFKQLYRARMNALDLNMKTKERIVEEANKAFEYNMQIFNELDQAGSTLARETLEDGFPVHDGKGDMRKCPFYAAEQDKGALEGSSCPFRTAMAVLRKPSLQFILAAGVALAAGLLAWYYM

ALDOA = target: T2, ALDOA (Homo sapiens, UniProt P04075); test: colorimetric aldolase activity kit; format: cell-based; conditions: covalent; […] AMG510 or vehicle, […] min
T2 sequence (P04075 2-364): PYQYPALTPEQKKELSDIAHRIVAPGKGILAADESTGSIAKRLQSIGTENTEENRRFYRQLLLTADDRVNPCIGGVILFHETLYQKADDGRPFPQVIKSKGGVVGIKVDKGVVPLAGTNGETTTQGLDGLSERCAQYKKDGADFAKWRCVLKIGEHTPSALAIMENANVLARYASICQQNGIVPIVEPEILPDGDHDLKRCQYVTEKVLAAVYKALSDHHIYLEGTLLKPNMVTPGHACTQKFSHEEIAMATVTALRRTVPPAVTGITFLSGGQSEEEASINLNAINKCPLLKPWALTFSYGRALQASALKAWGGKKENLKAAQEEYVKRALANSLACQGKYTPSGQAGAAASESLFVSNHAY

RTN4 = target: T3, RTN4 (Homo sapiens, UniProt Q9NQC3); test: direct LC-MS/MS profiling of modified tryptic peptides; format: cell-based; conditions: covalent at Cys1101; H358 cells, […] AMG510, […] h (methods print […] h)
T3 sequence (Q9NQC3 1-1192): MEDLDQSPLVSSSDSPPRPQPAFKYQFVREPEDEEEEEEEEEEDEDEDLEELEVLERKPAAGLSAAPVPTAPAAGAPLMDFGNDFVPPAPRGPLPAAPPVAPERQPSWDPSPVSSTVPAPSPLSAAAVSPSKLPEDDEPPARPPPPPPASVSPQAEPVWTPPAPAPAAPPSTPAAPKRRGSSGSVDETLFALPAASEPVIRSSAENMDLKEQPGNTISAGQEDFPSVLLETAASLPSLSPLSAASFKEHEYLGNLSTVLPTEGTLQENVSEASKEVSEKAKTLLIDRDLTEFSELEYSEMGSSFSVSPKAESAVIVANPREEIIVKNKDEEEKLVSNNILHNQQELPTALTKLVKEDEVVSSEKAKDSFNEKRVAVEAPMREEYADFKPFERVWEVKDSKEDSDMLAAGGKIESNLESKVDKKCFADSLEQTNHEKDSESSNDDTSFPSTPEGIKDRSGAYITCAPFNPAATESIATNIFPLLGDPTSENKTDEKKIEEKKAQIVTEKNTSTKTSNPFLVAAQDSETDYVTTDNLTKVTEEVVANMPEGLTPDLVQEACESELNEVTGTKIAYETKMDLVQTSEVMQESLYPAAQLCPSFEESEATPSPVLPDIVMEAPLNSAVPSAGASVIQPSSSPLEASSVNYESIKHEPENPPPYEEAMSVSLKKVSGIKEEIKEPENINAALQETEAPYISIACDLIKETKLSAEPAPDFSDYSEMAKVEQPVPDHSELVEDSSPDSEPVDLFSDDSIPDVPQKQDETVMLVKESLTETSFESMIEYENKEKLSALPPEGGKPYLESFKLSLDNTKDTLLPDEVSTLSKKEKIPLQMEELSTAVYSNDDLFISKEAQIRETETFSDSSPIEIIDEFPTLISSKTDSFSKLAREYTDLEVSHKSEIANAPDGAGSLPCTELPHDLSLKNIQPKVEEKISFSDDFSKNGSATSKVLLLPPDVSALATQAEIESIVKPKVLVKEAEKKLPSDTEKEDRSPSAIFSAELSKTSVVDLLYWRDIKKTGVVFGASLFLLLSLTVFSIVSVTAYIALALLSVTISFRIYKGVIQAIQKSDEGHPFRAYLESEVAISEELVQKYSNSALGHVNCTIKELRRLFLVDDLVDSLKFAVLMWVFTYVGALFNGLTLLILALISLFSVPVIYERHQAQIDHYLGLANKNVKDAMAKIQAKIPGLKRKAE

Ank2; ANK2 = Ank2; ANK2 (Mus musculus, UniProt Q8C8R3); test: anti-AMG510 peptide IP and LC-MS/MS of heart tissue; conditions: covalent at Cys3737; mice dosed orally […] mg/kg/day for […] days
Sequence of Ank2; ANK2 (Q8C8R3 whole entry): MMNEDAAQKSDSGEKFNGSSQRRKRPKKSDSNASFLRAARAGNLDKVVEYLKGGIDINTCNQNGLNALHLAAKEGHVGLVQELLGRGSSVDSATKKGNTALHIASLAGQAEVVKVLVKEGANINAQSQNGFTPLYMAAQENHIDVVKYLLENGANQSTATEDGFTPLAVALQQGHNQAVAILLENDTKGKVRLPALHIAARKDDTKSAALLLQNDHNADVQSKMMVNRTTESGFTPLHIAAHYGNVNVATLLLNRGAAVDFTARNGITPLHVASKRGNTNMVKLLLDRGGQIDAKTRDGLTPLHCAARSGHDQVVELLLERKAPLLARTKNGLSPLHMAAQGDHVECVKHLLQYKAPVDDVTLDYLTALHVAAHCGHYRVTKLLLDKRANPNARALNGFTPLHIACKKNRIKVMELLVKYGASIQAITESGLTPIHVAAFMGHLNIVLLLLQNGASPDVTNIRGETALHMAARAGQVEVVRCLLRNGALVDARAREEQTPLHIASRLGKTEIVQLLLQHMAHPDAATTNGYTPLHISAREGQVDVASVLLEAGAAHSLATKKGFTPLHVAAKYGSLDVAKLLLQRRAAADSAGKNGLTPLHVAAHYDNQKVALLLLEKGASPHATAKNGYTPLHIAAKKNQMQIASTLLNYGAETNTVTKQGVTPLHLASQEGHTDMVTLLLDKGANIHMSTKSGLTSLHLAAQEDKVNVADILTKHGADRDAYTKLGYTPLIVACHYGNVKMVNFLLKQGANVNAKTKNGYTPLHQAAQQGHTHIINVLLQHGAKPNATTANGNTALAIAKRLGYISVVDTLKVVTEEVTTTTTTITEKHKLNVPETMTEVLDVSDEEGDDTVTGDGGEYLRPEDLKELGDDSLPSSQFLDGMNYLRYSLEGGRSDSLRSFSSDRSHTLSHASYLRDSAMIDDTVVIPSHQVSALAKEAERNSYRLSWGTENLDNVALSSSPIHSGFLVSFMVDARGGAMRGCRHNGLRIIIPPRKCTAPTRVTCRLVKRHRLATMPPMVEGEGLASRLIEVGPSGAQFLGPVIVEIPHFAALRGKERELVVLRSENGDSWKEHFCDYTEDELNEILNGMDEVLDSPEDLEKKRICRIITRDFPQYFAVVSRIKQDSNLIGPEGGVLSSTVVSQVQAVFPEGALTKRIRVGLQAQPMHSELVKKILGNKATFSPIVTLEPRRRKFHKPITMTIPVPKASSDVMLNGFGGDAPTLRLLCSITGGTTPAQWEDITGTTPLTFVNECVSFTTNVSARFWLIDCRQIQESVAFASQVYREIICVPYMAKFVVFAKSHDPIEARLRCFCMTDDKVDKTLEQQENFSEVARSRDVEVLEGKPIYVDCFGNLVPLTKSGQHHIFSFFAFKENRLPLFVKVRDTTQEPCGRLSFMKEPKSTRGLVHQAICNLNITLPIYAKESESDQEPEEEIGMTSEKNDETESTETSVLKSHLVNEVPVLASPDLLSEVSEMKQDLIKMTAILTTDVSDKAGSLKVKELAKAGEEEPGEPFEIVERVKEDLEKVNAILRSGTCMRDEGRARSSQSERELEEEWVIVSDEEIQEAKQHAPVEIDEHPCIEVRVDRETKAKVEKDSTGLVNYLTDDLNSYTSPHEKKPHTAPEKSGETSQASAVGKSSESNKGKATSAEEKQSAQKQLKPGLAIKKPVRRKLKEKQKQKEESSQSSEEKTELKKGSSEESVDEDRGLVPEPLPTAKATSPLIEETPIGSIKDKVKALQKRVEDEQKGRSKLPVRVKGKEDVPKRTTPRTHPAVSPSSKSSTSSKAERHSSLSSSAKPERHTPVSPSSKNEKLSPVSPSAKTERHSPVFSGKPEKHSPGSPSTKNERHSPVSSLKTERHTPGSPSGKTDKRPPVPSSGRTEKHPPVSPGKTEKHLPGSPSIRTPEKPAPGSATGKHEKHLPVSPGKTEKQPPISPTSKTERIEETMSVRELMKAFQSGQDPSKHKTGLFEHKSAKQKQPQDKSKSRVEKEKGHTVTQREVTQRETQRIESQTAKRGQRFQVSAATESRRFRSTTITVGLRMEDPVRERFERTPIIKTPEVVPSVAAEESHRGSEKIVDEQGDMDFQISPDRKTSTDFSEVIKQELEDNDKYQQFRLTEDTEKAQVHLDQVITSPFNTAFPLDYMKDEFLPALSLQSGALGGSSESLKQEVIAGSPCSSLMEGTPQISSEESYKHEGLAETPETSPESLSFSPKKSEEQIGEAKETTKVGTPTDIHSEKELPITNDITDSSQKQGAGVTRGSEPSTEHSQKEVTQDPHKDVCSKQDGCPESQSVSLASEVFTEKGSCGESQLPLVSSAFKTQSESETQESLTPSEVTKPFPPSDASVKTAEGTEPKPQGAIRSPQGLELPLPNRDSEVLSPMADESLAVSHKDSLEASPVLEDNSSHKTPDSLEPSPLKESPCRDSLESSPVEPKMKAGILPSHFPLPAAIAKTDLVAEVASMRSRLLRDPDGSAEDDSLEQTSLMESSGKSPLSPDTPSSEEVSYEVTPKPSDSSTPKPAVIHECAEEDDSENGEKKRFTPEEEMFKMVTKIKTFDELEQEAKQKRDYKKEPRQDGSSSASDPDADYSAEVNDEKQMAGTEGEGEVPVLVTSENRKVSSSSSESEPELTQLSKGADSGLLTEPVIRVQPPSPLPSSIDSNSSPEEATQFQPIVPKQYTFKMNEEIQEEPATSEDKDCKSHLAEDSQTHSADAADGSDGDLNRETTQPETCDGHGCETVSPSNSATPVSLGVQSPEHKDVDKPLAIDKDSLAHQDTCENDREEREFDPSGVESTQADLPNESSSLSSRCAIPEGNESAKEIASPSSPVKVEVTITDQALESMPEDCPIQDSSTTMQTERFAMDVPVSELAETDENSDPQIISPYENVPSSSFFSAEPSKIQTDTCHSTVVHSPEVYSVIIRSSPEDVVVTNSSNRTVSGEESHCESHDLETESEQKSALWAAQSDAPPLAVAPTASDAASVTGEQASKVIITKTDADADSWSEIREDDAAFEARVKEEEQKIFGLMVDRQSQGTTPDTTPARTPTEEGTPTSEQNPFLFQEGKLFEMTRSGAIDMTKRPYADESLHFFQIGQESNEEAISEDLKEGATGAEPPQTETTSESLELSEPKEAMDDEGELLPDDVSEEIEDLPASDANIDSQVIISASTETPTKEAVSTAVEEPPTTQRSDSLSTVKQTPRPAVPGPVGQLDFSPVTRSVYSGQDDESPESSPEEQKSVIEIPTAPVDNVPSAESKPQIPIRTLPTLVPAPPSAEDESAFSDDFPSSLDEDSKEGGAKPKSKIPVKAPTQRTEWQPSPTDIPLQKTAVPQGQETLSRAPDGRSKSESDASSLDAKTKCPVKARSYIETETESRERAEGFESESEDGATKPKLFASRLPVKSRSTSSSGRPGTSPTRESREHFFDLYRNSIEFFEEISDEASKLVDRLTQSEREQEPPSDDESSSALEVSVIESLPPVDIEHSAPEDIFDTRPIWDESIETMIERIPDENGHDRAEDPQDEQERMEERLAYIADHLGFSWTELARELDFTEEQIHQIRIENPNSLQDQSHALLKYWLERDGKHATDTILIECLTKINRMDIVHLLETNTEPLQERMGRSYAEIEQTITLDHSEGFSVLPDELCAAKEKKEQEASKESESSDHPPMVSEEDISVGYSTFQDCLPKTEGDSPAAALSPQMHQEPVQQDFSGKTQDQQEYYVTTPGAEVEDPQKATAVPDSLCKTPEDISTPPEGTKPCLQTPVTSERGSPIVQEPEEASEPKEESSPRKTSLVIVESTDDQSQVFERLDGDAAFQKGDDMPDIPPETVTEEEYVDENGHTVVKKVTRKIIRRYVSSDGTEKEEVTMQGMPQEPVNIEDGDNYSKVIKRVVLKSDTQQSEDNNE

S100A16 = target: T4, S100A16 (Homo sapiens, UniProt Q96FQ6); test: direct LC-MS/MS profiling of modified tryptic peptides; format: cell-based; conditions: covalent at Cys4; H358 cells, […] AMG510, […] h (methods print […] h)
T4 sequence (Q96FQ6 1-103): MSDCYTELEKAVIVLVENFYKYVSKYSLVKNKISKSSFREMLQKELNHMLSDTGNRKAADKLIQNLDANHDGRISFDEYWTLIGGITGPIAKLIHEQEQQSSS

PCBP1 = PCBP1 (Homo sapiens, UniProt Q15365); test: as above; format: cell-based; conditions: covalent at Cys194; H358 cells, […] AMG510, […] h (methods print […] h)
Sequence of PCBP1 (Q15365 whole entry): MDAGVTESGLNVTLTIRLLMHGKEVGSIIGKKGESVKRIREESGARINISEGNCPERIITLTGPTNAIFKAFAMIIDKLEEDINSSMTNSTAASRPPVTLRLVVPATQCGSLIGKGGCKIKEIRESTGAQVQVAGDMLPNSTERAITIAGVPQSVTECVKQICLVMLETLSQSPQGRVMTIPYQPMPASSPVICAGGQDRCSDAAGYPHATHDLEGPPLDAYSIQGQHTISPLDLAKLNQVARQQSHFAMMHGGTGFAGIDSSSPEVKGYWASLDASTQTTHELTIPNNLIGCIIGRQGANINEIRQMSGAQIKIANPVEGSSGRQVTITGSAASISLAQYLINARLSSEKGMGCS

Sequence of HSPD1 (P10809 27-573): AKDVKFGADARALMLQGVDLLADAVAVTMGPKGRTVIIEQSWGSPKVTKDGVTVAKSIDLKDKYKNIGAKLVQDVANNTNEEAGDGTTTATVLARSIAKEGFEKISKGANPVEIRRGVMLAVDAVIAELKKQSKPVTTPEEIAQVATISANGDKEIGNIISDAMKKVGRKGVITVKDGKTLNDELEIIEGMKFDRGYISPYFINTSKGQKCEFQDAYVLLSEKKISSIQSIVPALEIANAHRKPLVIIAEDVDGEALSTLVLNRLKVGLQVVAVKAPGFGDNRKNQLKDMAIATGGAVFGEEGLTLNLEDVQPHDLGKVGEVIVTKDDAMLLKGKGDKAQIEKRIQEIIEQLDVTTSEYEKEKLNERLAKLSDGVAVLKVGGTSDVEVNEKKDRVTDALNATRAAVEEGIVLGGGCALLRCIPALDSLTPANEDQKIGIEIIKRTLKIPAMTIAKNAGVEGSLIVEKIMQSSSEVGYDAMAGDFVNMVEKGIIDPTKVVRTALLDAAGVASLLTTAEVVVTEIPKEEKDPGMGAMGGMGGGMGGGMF
Sequence of ANXA2 (P07355 2-339): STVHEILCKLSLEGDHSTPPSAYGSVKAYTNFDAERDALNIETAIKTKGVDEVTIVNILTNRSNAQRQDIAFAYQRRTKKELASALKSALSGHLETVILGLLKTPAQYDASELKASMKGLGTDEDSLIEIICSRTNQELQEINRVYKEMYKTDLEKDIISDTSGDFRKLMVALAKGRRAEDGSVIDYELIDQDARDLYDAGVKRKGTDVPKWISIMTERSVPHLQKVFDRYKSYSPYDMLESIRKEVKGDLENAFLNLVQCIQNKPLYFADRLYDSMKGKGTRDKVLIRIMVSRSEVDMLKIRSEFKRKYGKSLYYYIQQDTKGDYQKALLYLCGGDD

- direct LC-MS/MS profiling of modified tryptic peptides (PCBP1): tumor suppressor (PCBP1 C194)
SMILES: C=CC(=O)N1CCN(c2nc(=O)n(-c3c(C)ccnc3C(C)C)c3nc(-c4c(O)cccc4F)c(F)cc23)[C@@H](C)C1 [AMG510]
- direct LC-MS/MS profiling of modified tryptic peptides (ANXA2): multifunctional membrane-binding protein (ANXA2 C9)
- direct LC-MS/MS profiling of modified tryptic peptides (HSPD1): protein folding accessory protein (HSPD1 C237)
- direct LC-MS/MS profiling of modified tryptic peptides (HMOX2): off-targets that were identified in previous studies (RTN4 C1101 and HMOX2 C282)
- aldolase activity (ALDOA): The ALDOA enzyme activity assay showed that the activity was indeed inhibited by the AMG510
- direct LC-MS/MS profiling of modified tryptic peptides (RTN4): off-targets that were identified in previous studies (RTN4 C1101 and HMOX2 C282)
- anti-AMG510 peptide IP and LC-MS/MS of heart tissue (Ank2; ANK2): Ank2 was modified by AMG510 at Cys3737 in the mouse heart tissue
- direct LC-MS/MS profiling of modified tryptic peptides (S100A16): transporters (RAE1 C106, S100A16C4, VDAC2 C91 and C225)
